Tests used:
Format in all cases: biochemical
CDK2/CyclinE1 = CDK2/CyclinE1 (Homo sapiens (Human), UniProt P24941); experiment: CDK2/CyclinE1 kinase inhibitory activity (Caliper mobility shift); details: read-out: CDK2/Cyclin El IC50
CDK1/CyclinB = CDK1/CyclinB (Homo sapiens (Human), UniProt P06493); experiment: CDK1/CyclinB kinase inhibitory activity (Caliper mobility shift); details: read-out: CDK1/Cyclin B1 IC50
CDK4/Cyclin D1 = CDK4/Cyclin D1 (Homo sapiens (Human), UniProt P11802); experiment: CDK4/CyclinD1 kinase inhibitory activity (Caliper mobility shift)
CDK4/Cyclin D1, sequence (P11802 whole entry): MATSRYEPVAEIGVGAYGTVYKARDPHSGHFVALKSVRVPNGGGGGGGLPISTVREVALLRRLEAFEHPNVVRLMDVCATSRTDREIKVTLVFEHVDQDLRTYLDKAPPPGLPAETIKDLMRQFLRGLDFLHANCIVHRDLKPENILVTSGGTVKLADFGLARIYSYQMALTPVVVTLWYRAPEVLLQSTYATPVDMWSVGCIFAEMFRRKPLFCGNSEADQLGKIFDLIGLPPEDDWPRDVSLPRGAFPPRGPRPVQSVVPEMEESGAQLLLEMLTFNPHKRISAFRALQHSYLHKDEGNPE
CDK4/Cyclin D1, sequence (P24385 whole entry partner): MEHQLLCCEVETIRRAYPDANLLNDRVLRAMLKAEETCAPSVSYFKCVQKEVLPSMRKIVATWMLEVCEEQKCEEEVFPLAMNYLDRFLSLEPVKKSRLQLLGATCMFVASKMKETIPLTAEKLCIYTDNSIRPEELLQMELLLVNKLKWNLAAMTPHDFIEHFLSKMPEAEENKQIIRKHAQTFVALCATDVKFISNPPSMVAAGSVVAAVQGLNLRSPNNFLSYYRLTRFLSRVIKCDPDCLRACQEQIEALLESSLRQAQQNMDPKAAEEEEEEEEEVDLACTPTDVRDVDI

CDK6/CyclinD1 = CDK6/CyclinD1 (Homo sapiens (Human), UniProt Q00534); experiment: CDK6/CyclinD1 kinase inhibitory activity (Caliper mobility shift); details: read-out: CDK6/Cyclin D1 IC50
CDK6/CyclinD1, sequence (Q00534 whole entry): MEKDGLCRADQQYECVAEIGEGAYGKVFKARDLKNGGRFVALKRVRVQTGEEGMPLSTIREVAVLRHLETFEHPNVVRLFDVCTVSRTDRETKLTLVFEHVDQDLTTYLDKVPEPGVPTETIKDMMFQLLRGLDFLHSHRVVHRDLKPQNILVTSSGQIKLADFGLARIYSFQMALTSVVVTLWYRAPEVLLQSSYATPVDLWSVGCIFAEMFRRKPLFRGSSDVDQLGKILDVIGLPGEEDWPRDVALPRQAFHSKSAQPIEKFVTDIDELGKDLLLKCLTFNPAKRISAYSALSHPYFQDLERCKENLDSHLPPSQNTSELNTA
CDK6/CyclinD1, sequence (P24385 whole entry partner): as the sequence (P24385 whole entry partner) above

CDK7/CyclinH/MAT1 = CDK7/CyclinH/MAT1 (Homo sapiens (Human), UniProt P50613); experiment: CDK7/CyclinH/MAT1 kinase inhibitory activity (Caliper mobility shift)
CDK7/CyclinH/MAT1, sequence (P50613 whole entry): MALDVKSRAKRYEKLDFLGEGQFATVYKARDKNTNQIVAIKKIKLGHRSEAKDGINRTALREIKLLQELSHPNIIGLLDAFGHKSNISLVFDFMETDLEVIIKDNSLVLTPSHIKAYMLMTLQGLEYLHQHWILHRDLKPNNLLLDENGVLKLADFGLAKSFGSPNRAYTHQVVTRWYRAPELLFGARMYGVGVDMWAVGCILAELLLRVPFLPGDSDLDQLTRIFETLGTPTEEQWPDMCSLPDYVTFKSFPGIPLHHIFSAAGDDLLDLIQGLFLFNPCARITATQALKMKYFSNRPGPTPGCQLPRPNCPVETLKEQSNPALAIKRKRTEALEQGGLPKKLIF
CDK7/CyclinH/MAT1, sequence (P51946 whole entry partner): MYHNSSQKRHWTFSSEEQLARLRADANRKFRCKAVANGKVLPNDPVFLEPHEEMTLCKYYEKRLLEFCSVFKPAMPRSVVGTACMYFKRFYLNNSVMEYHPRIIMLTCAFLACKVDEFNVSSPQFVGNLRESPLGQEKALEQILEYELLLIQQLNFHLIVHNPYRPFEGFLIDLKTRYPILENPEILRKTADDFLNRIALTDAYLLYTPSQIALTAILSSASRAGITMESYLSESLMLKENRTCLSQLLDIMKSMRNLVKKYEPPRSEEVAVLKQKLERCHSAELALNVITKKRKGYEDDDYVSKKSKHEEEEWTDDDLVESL
CDK7/CyclinH/MAT1, sequence (P51948 whole entry partner): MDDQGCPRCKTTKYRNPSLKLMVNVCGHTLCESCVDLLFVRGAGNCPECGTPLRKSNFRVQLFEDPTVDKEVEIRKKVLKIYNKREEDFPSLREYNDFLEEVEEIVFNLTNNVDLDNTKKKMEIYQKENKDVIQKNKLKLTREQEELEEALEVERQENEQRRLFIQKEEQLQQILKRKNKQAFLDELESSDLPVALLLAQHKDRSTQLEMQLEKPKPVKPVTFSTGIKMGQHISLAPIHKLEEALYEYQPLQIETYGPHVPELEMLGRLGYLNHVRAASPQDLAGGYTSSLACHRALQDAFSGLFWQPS

CDK9/CyclinT1 = CDK9/CyclinT1 (Homo sapiens (Human), UniProt P50750); experiment: CDK9/CyclinT1 kinase inhibitory activity (Caliper mobility shift); details: read-out: CDK9/Cyclin T1 IC50
CDK9/CyclinT1, sequence (P50750 whole entry): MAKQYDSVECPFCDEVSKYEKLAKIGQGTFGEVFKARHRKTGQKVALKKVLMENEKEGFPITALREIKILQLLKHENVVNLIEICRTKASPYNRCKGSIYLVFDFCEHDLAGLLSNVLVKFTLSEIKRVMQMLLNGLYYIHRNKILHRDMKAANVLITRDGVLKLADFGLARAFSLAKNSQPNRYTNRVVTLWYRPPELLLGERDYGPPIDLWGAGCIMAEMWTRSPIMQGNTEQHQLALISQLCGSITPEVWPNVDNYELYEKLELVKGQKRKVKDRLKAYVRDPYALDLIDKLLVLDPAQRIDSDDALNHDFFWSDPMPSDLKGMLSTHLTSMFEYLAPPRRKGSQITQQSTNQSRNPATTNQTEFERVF
CDK9/CyclinT1, sequence (O60563 whole entry partner): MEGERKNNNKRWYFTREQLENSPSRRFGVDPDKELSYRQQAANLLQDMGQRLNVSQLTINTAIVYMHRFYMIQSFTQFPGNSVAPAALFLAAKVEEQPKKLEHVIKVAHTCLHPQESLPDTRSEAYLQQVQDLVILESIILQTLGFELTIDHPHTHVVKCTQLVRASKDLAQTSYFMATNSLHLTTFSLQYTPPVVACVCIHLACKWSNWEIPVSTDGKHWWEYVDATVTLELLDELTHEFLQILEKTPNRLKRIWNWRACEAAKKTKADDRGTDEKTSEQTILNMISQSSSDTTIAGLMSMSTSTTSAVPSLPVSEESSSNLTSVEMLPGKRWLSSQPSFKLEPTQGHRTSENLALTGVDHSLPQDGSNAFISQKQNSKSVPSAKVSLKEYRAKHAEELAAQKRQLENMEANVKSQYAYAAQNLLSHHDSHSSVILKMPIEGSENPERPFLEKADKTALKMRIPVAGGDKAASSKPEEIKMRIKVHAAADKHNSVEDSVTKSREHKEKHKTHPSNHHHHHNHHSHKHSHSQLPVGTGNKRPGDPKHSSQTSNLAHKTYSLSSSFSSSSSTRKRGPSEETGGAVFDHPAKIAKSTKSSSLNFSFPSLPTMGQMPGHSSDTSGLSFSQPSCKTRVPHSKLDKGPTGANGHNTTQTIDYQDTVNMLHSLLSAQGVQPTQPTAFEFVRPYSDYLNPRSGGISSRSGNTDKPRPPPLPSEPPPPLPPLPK

CDK1/CyclinB, sequence (P06493 whole entry): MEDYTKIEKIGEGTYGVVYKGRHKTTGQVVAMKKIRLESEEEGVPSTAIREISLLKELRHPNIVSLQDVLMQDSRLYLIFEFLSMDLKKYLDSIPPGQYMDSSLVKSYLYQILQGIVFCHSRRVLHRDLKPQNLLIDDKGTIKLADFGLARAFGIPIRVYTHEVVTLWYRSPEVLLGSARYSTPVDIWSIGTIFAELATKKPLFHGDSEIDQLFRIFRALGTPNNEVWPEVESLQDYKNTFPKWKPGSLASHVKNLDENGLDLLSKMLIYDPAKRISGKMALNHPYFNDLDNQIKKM
CDK1/CyclinB, sequence (P14635 whole entry partner): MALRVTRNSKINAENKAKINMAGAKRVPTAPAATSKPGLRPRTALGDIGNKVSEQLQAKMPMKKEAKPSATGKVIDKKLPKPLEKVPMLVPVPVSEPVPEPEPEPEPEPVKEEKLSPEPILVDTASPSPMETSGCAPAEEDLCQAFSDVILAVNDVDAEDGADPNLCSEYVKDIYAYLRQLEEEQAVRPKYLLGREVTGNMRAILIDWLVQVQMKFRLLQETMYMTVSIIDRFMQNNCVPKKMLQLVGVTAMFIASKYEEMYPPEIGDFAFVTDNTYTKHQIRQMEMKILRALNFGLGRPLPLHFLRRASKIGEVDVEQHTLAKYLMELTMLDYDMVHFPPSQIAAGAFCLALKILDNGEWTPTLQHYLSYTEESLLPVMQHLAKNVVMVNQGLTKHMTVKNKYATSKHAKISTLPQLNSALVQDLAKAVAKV

IC50 (CDK2/CyclinE1) [nM] | IC50 (CDK1/CyclinB) [nM] | IC50 (CDK4/Cyclin D1) [nM] | IC50 (CDK6/CyclinD1) [nM] | IC50 (CDK7/CyclinH/MAT1) [nM] | IC50 (CDK9/CyclinT1) [nM] | SMILES
< 10 | 10 to 100 | 10 to 100 | 10 to 100 | 100 to 1000 | 100 to 1000 | CS(=O)(=O)N1CCC(Nc2ncc(C(F)(F)F)c(OC3CCC3)n2)CC1 [Example 126]
< 10 | 100 to 1000 | ≥ 1000 | ≥ 1000 | ≥ 1000 | ≥ 1000 | [2H]C([2H])([2H])NS(=O)(=O)c1ccc(Nc2ncc(C(F)(F)F)c(O[C@H]3CCOC[C@H]3O)n2)c(F)c1 (single isomer, unassigned) [Example 101a, cis-3-fluoro-4-((4-((3-hydroxytetrahydro-2H-pyran-4-yl)oxy)-5-(trifluoromethyl)pyrimidin-2-yl)amino)-N-(methyl-d3)benzenesulfonamide]
< 10 | 10 to 100 | 10 to 100 | 10 to 100 | ≥ 1000 | 100 to 1000 | N#Cc1cnc(Nc2ccc(S(N)(=O)=O)cc2)nc1OC1CCCCCC1O (single isomer, unassigned) [Example 22a]
< 10 | 10 to 100 | < 10 | 10 to 100 | ≥ 1000 | 10 to 100 | CC1(COc2nc(NC3CCN(S(C)(=O)=O)CC3)ncc2C(F)(F)F)CCCC1 [Example 128]
< 10 | 100 to 1000 | ≥ 1000 | 100 to 1000 | ≥ 1000 | 100 to 1000 | Cc1cnc(Nc2ccc(S(=O)(=O)NC3CC3)cc2)nc1OC1CCCC1O (single isomer, unassigned) [Example 146a]
10 to 100 | 100 to 1000 | 10 to 100 | 100 to 1000 | ≥ 1000 | 100 to 1000 | N#Cc1cnc(Nc2ccc(S(N)(=O)=O)cc2)nc1N1CCC[C@H](F)C1 [Example 81]
< 10 | 10 to 100 | 100 to 1000 | 100 to 1000 | 100 to 1000 | 100 to 1000 | [2H]C([2H])([2H])NS(=O)(=O)c1ccc(Nc2ncc(C(F)(F)F)c(O[C@H]3CCCOC[C@H]3O)n2)cc1 (single isomer, unassigned) [Example 103a, cis-4-((4-((3-hydroxyoxepan-4-yl)oxy)-5-(trifluoromethyl)pyrimidin-2-yl)amino)-N-(methyl-d3)benzenesulfonamide]
< 10 | 10 to 100 | < 10 | 10 to 100 | 10 to 100 | 100 to 1000 | CC1(O)CCCC1Oc1nc(NC2CCN(S(=O)(=O)CF)CC2)ncc1C#N (single isomer, unassigned) [Example 37a]
< 10 | 100 to 1000 | 100 to 1000 | 100 to 1000 | 100 to 1000 | 100 to 1000 | Cc1cnc(Nc2ccc(S(N)(=O)=O)cc2)nc1O[C@@H]1CCC[C@@H]1O (single isomer, unassigned) [Example 132a, cis-4-((4-((2-hydroxycyclopentyl)oxy)-5-methylpyrimidin-2-yl)amino)benzenesulfonamide]
< 10 | 10 to 100 | 10 to 100 | 10 to 100 | < 10 | 10 to 100 | CC1(O)COCCC1Oc1nc(NC2CCN(S(C)(=O)=O)CC2)ncc1C(F)(F)F (single isomer, unassigned) [Example 124a]
< 10 | < 10 | 10 to 100 | 10 to 100 | 10 to 100 | 10 to 100 | CC(C)NS(=O)(=O)c1ccc(Nc2ncc(C#N)c(OC3CCCC3(C)O)n2)cc1 (single isomer, unassigned) [Example 35a]
< 10 | 100 to 1000 | 100 to 1000 | 100 to 1000 | ≥ 1000 | 100 to 1000 | N#Cc1cnc(Nc2ccc(S(N)(=O)=O)cc2)nc1OC1CCCC1O (single isomer, unassigned) [Example 20a]
< 10 | 10 to 100 | 100 to 1000 | 100 to 1000 | 100 to 1000 | 100 to 1000 | O=S(=O)(NC1CCOCC1)c1ccc(Nc2ncc(Cl)c(O[C@@H]3CCC[C@@H]3O)n2)cc1 (single isomer, unassigned) [Example 130a, cis-4-((5-chloro-4-((2-hydroxycyclopentyl)oxy)pyrimidin-2-yl)amino)-N-(tetrahydro-2H-pyran-4-yl)benzenesulfonamide]
10 to 100 | 100 to 1000 | 100 to 1000 | 100 to 1000 | ≥ 1000 | ≥ 1000 | CN1CCC(NS(=O)(=O)c2ccc(Nc3ncc(Cl)c(OC4CCCC4O)n3)cc2)CC1 (single isomer, unassigned) [Example 139b]
< 10 | 10 to 100 | < 10 | 100 to 1000 | 100 to 1000 | 10 to 100 | CS(=O)(=O)N1CCC(Nc2ncc(C(F)(F)F)c(OC3CCCCC3)n2)CC1 [Example 127]
< 10 | < 10 | < 10 | < 10 | 10 to 100 | 100 to 1000 | Cn1cc(S(=O)(=O)N2CCC(Nc3ncc(C#N)c(O[C@@H]4CCC(F)(F)C[C@]4(C)O)n3)CC2)cn1 (relative stereo) [Example 7a, cis-4-((4,4-difluoro-2-hydroxy-2-methylcyclohexyl)oxy)-2-((1-((1-methyl-1H-pyrazol-4-yl)sulfonyl)piperidin-4-yl)amino)pyrimidine-5-carbonitrile]
< 10 | 10 to 100 | 100 to 1000 | 100 to 1000 | 100 to 1000 | 100 to 1000 | CNS(=O)(=O)c1ccc(Nc2ncc(C(F)(F)F)c(OC3CCOCC3O)n2)cc1 (single isomer, unassigned) [Example 116a]
< 10 | 10 to 100 | < 10 | 10 to 100 | 100 to 1000 | 100 to 1000 | CCS(=O)(=O)N1CCC(Nc2ncc(C#N)c(OC3CCCC3(C)O)n2)CC1 (single isomer, unassigned) [Example 36b]
< 10 | 10 to 100 | < 10 | 100 to 1000 | ≥ 1000 | 10 to 100 | CC1(COc2nc(Nc3ccc(S(N)(=O)=O)cc3)ncc2C#N)CCCC1 [Example 12]
< 10 | 10 to 100 | 10 to 100 | 10 to 100 | 100 to 1000 | 10 to 100 | N#Cc1cnc(Nc2ccc(S(N)(=O)=O)cc2)nc1OC1CCCC1 [Example 10]
< 10 | 10 to 100 | < 10 | 10 to 100 | 100 to 1000 | 100 to 1000 | Cn1cc(S(=O)(=O)N2CCC(Nc3ncc(C#N)c(OCC4(C)CC(F)(F)C4)n3)CC2)cn1 [Example 61]
< 10 | < 10 | < 10 | < 10 | 100 to 1000 | 100 to 1000 | Cn1cnc(S(=O)(=O)N2CCC(Nc3ncc(C#N)c(OC4CCCC4(C)O)n3)CC2)c1 (single isomer, unassigned) [Example 50a]
< 10 | 10 to 100 | 100 to 1000 | 10 to 100 | 100 to 1000 | 10 to 100 | C=Cc1cnc(Nc2ccc(S(N)(=O)=O)cc2)nc1OC1CCCC1O (single isomer, unassigned) [Example 155a]
